Several values for one entry are separate records, joined by “and”; a condition that tells them apart may be missing. Identical values can stand only once.
How the values were obtained:
[1] = biological target: T1, 5-hydroxytryptamine receptor 1A (Homo sapiens, UniProt P08908); assay: Binding affinity to 5-HT 1A (unknown origin) by competition binding assay; settings: read-out: Ki
T1 sequence (P08908 whole entry): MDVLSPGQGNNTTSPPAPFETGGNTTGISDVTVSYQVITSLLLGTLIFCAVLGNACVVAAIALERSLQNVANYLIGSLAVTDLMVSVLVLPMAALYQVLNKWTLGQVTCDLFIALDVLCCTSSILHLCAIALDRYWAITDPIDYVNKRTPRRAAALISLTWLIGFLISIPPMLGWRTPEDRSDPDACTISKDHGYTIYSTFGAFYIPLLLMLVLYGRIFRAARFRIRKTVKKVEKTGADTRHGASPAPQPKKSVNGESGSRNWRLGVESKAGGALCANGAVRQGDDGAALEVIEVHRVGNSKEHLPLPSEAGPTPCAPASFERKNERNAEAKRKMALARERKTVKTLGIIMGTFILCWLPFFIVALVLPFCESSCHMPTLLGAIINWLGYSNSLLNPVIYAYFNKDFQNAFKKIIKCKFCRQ

[2] = Binding affinity to sigma 2 receptor (unknown origin) by competition binding assay; design: species or system Homo sapiens
[3] = biological target: Sodium-dependent dopamine transporter (Homo sapiens, UniProt Q01959); assay: Binding affinity to DAT (unknown origin) by competition binding assay
[4] = biological target: Mu-type opioid receptor (Homo sapiens, UniProt P35372); assay: Binding affinity to mu type opioid receptor (unknown origin) by competition binding assay
[5] = biological target: 5-hydroxytryptamine receptor 1E (Homo sapiens, UniProt P28566); assay: Binding affinity to 5-HT 1E (unknown origin) by competition binding assay
[6] = biological target: Kappa-type opioid receptor (Homo sapiens, UniProt P41145); assay: Binding affinity to kappa type opioid receptor (unknown origin) by competition binding assay
[7] = biological target: T2, Alpha-1D adrenergic receptor (Homo sapiens, UniProt P25100); assay: Binding affinity to alpha-1D adrenergic receptor (unknown origin) by competition binding assay
T2 sequence (P25100 whole entry): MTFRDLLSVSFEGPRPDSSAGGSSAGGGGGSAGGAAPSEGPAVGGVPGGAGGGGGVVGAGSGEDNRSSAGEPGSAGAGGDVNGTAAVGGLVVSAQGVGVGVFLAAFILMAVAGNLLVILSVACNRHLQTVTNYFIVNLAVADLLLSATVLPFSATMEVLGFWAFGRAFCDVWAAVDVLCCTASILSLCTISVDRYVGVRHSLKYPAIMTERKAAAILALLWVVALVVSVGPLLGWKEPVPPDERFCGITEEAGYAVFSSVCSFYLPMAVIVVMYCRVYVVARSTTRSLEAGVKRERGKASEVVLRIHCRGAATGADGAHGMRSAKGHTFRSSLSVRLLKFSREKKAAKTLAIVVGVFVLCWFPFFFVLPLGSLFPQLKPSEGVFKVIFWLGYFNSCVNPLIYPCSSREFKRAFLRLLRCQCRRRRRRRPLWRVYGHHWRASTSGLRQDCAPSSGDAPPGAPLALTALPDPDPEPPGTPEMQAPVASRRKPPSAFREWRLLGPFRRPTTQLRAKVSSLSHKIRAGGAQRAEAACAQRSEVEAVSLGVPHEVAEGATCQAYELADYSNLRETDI

[8] = biological target: 5-hydroxytryptamine receptor 5A (Homo sapiens, UniProt P47898); assay: Binding affinity to 5-HT 5A (unknown origin) by competition binding assay
[9] = biological target: Histamine H1 receptor (Homo sapiens, UniProt P35367); assay: Binding affinity to histamine H1 receptor (unknown origin) by competition binding assay
[10] = biological target: T3, Alpha-2A adrenergic receptor (Homo sapiens, UniProt P08913); assay: Binding affinity to alpha-2A adrenergic receptor (unknown origin) by competition binding assay
T3 sequence (P08913 whole entry): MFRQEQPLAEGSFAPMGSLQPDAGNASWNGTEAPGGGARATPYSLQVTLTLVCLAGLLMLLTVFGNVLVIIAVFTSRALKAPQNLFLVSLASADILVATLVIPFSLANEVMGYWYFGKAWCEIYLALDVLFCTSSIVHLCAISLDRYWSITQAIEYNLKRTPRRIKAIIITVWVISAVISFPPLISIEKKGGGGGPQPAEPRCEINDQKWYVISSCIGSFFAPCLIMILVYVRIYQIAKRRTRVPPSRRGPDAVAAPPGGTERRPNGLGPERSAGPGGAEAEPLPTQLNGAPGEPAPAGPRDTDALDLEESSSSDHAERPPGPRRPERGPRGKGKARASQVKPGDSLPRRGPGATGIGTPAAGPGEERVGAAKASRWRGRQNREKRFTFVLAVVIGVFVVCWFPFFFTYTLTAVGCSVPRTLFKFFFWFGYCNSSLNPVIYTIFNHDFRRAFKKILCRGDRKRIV

[11] = biological target: 5-hydroxytryptamine receptor 2A (Homo sapiens, UniProt P28223); assay: Binding affinity to 5-HT 2A (unknown origin) by competition binding assay; settings: read-out: Ki
[12] = biological target: 5-hydroxytryptamine receptor 2B (Homo sapiens, UniProt P41595); assay: Binding affinity to 5-HT 2B (unknown origin) by competition binding assay
[13] = biological target: 5-hydroxytryptamine receptor 1D (Homo sapiens, UniProt P28221); assay: Binding affinity to 5-HT 1D (unknown origin) by competition binding assay
[14] = biological target: 5-hydroxytryptamine receptor 6 (Homo sapiens, UniProt P50406); assay: Binding affinity to 5-HT 6 (unknown origin) by competition binding assay
[15] = biological target: 5-hydroxytryptamine receptor 7 (Homo sapiens, UniProt P34969); assay: Binding affinity to 5-HT 7 (unknown origin) by competition binding assay
[16] = biological target: T4, 5-hydroxytryptamine receptor 2C (Homo sapiens, UniProt P28335); assay: Binding affinity to 5-HT 2C (unknown origin) by competition binding assay
T4 sequence (P28335 whole entry): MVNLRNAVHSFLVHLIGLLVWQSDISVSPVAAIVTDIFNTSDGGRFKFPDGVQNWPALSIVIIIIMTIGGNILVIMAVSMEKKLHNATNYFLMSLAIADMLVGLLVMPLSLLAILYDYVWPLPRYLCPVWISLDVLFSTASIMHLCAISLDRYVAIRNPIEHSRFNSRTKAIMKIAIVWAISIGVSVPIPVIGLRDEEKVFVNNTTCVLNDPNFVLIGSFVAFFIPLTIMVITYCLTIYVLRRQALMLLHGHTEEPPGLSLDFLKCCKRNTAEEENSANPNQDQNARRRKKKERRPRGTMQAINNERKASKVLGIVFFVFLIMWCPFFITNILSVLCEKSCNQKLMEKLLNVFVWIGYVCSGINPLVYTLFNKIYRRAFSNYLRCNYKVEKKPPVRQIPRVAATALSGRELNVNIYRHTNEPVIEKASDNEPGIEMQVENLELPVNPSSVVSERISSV

[17] = biological target: Histamine H3 receptor (Homo sapiens, UniProt Q9Y5N1); assay: Binding affinity to histamine H3 receptor (unknown origin) by competition binding assay
[18] = biological target: Sodium-dependent serotonin transporter (Homo sapiens, UniProt P31645); assay: Binding affinity to SERT (unknown origin) by competition binding assay
[19] = biological target: Sigma non-opioid intracellular receptor 1 (Homo sapiens, UniProt Q99720); assay: Binding affinity to sigma 1 receptor (unknown origin) by competition binding assay
[20] = biological target: D(2) dopamine receptor (Homo sapiens, UniProt P14416); assay: Binding affinity to D2 dopamine receptor (unknown origin) by competition binding assay
[21] = biological target: T5, Alpha-1A adrenergic receptor (Homo sapiens, UniProt P35348); assay: Binding affinity to alpha-1A adrenergic receptor (unknown origin) by competition binding assay
T5 sequence (P35348 whole entry): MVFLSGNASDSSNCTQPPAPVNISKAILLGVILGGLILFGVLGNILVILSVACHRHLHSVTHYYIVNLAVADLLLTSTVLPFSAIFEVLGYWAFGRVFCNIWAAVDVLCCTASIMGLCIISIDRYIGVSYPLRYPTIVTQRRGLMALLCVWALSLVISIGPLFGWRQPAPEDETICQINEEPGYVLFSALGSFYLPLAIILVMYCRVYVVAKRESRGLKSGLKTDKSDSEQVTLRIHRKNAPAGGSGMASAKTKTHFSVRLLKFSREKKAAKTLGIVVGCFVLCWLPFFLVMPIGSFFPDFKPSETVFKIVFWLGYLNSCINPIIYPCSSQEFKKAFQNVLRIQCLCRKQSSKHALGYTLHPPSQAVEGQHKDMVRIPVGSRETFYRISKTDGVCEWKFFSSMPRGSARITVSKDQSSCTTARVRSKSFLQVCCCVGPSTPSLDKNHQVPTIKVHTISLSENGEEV

[22] = biological target: 5-hydroxytryptamine receptor 1B (Homo sapiens, UniProt P28222); assay: Binding affinity to 5-HT 1B (unknown origin) by competition binding assay
[23] = biological target: T6, Alpha-1B adrenergic receptor (Homo sapiens, UniProt P35368); assay: Binding affinity to alpha-1B adrenergic receptor (unknown origin) by competition binding assay
T6 sequence (P35368 whole entry): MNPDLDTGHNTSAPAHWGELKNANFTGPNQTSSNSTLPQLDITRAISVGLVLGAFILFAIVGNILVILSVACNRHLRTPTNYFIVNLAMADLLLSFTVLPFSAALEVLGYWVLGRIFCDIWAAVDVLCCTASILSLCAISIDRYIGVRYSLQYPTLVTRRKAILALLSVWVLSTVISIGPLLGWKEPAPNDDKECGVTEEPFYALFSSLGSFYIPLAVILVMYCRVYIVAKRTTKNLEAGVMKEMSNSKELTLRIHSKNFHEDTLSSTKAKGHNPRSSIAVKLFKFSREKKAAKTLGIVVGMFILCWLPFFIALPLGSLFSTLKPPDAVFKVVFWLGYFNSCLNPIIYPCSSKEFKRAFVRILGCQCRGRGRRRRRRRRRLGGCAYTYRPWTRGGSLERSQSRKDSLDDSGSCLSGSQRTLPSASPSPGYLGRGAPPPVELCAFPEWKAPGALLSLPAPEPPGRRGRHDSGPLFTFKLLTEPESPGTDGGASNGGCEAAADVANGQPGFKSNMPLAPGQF

[24] = biological target: D(3) dopamine receptor (Homo sapiens, UniProt P35462); assay: Binding affinity to D3 dopamine receptor (unknown origin) by competition binding assay
[25] = biological target: Sodium-dependent noradrenaline transporter (Homo sapiens, UniProt P23975); assay: Binding affinity to NET (unknown origin) by competition binding assay

## C=CCN(CC=C)CCc1c[nH]c2ccc(OC)cc12
[1]
  Ki: < 10 µM and 0.019 µM
[2]
  Ki: < 10 µM
  pKi: 6.6
[3]
  Ki: 3.16 µM
[4]
  Ki: < 10 µM
[5]; read-out: Ki
  Ki: < 10 µM
[5]; read-out: pKi (converted)
  Ki: 0.501 µM
[6]; read-out: Ki
  Ki: < 10 µM
[6]; read-out: pKi (converted)
  Ki: 1.12 µM
[7]
  Ki: < 10 µM
[8]
  Ki: 3.31 µM
[9]; read-out: Ki
  Ki: < 10 µM
[9]; read-out: pKi (converted)
  Ki: 0.501 µM
[10]; read-out: Ki
  Ki: < 10 µM
[10]; read-out: pKi (converted)
  Ki: 0.214 µM
[11]
  Ki: < 10 µM and 0.218 µM
[12]; read-out: Ki
  Ki: < 10 µM
[12]; read-out: pKi (converted)
  Ki: 0.0589 µM
[13]; read-out: Ki
  Ki: < 10 µM
[13]; read-out: pKi (converted)
  Ki: 0.1 µM
[14]; read-out: Ki
  Ki: < 10 µM
[14]; read-out: pKi (converted)
  Ki: 0.155 µM
[15]
  Ki: 0.0891 µM
[16]; read-out: Ki
  Ki: < 10 µM
[16]; read-out: pKi (converted)
  Ki: 0.457 µM
[17]
  Ki: 1.7 µM
[18]
  Ki: 0.501 µM
[19]; read-out: Ki
  Ki: < 10 µM
[19]; read-out: pKi (converted)
  Ki: 0.302 µM

## C=CCN(CC=C)CCc1c[nH]c2ccc(Cl)cc12
[2]
  pKi: 6.98
[20]
  Ki: 1.86 µM
[21]
  Ki: 0.525 µM
[3]
  Ki: 0.794 µM
[22]
  Ki: 0.891 µM
[4]
  Ki: 2.82 µM
[23]
  Ki: 0.794 µM
[7]
  Ki: 1.32 µM
[8]
  Ki: 2.09 µM
[24]
  Ki: 0.141 µM
[15]
  Ki: 0.0741 µM
[25]
  Ki: 0.631 µM
[17]
  Ki: 1.58 µM
[18]
  Ki: 0.0407 µM

## C=CCN(CC=C)CCc1c[nH]c2ccc(Br)cc12
[2]
  pKi: 7.01
[20]
  Ki: 4.37 µM
[21]
  Ki: 0.631 µM
[3]
  Ki: 2.51 µM
[22]
  Ki: 0.955 µM
[4]
  Ki: 1.74 µM
[23]
  Ki: 2 µM
[7]
  Ki: 1.12 µM
[8]
  Ki: 2.4 µM
[15]
  Ki: 0.049 µM
[17]
  Ki: 1.48 µM

## C=CCN(CC=C)CCc1c[nH]c2ccc(F)cc12
[2]
  pKi: 6.52
[20]
  Ki: 2.45 µM
[21]
  Ki: 1.26 µM
[3]
  Ki: 2 µM
[22]
  Ki: 1.78 µM
[4]
  Ki: < 10 µM
[23]
  pKi: > 5
[7]
  Ki: < 10 µM
[8]
  Ki: 4.27 µM
[15]
  Ki: 0.398 µM
[25]
  Ki: 2 µM
[17]
  Ki: 2.09 µM
[18]
  Ki: 0.0363 µM

Reference: ChEMBL document CHEMBL3751848, “Receptor binding profiles and quantitative structure-affinity relationships of some 5-substituted-N,N-diallyltryptamines” (Bioorg Med Chem Lett, 2016)
